# How the values were obtained:
# [1] = tested on: IBC02; test: WST cell proliferation assay, IBC02 cells; assay type: cell-based
# [2] = tested on: IBC03; test: WST cell proliferation assay, IBC03 cells; assay type: cell-based
# [3] = tested on: KPL4; test: WST cell proliferation assay, KPL4 cells; assay type: cell-based
# [4] = tested on: SUM149; test: WST cell proliferation assay, SUM149 cells; assay type: cell-based
# [5] = tested on: SUM190; test: WST cell proliferation assay, SUM190 cells; assay type: cell-based
# [6] = cited from earlier work; for peak serum concentrations achieved in different clinical trials: human, in vivo; for Cmax: peak serum concentration, clinical trials, read-out: Phase I-II Cmax
# [7] = at clinically recommended doses; cited from earlier work
# [8] = tested on: MFM223; test: WST cell proliferation assay, MFM223 cells; details: 100 nM, 7 days
# Method: (§1) The inhibition of cell proliferation by E, N, T and ENT is measured by WST assay.
# [9] = tested on: HCC1913; test: WST cell proliferation assay, HCC1913 cells; details: 100 nM, 7 days
# Method: as §1
# [10] = molecular target: HDAC1 (Homo sapiens, UniProt Q13547); details: previously shown [37]; cited from earlier work
# [11] = single drug 100 nM, Belinostat panel
# [12] = single drug 100 nM, Entinostat panel (upper part of Table 6)
# [13] = single drug 200 nM, Belinostat panel
# [14] = single drug 200 nM, Entinostat panel
# [15] = single drug 1000 nM, Belinostat panel
# [16] = single drug 500 nM, Belinostat panel
# [17] = single drug 150 nM, Entinostat panel
# HDAC1, sequence (Q13547 whole entry): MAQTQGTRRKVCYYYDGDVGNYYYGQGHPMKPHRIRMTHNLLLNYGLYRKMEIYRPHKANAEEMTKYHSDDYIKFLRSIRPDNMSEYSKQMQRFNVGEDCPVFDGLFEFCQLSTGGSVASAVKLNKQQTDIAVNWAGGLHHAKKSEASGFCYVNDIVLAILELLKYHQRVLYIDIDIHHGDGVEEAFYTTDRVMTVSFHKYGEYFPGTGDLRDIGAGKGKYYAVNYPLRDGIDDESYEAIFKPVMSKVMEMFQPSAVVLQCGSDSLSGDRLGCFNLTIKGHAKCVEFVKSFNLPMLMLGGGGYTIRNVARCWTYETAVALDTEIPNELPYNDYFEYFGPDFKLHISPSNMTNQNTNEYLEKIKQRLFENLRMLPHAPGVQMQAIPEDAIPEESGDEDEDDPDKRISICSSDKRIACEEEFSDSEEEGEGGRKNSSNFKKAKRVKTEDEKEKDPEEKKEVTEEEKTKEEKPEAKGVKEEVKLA
SMILES,"Survival of inflammatory breast cancer cells (percent viability vs DMSO) [1, 11]","Survival of inflammatory breast cancer cells (percent viability vs DMSO) [1, 12]","Survival of inflammatory breast cancer cells (percent viability vs DMSO) [2, 11]","Survival of inflammatory breast cancer cells (percent viability vs DMSO) [2, 12]","Survival of inflammatory breast cancer cells (percent viability vs DMSO) [3, 11]","Survival of inflammatory breast cancer cells (percent viability vs DMSO) [3, 12]","Survival of inflammatory breast cancer cells (percent viability vs DMSO) [4, 11]","Survival of inflammatory breast cancer cells (percent viability vs DMSO) [4, 12]","Survival of inflammatory breast cancer cells (percent viability vs DMSO) [5, 11]","Survival of inflammatory breast cancer cells (percent viability vs DMSO) [5, 12]",peak serum concentrations achieved in different clinical trials [6] [µM],Cmax [6] [µM],side effects [7],further results
CCc1cc(C(N)=O)ccc1-n1nc(C(C)C)c2c(-n3cnc(-c4cnn(C)c4)c3)ccnc21 [Pimitespib],114,107,89,89,102,89,111,115,112,114,7,7,"diarrhea, decreased appetite, malaise, renal impairment, and anemia","Survival of inflammatory breast cancer cells (percent viability vs DMSO) [1, 13]: 105; Survival of inflammatory breast cancer cells (percent viability vs DMSO) [1, 14]: 114; Survival of inflammatory breast cancer cells (percent viability vs DMSO) [2, 13]: 81; Survival of inflammatory breast cancer cells (percent viability vs DMSO) [2, 14]: 81; Survival of inflammatory breast cancer cells (percent viability vs DMSO) [3, 13]: 136; Survival of inflammatory breast cancer cells (percent viability vs DMSO) [3, 14]: 118; Survival of inflammatory breast cancer cells (percent viability vs DMSO) [4, 13]: 158; Survival of inflammatory breast cancer cells (percent viability vs DMSO) [4, 14]: 172; Survival of inflammatory breast cancer cells (percent viability vs DMSO) [5, 13]: 100; Survival of inflammatory breast cancer cells (percent viability vs DMSO) [5, 14]: 102"
O=C(Nc1ccc([N+](=O)[O-])cc1Cl)c1cc(Cl)ccc1O [Niclosamide],17,20,35,46,104,91,74,113,133,135,2,2,"itching, drowsiness, dizziness, and skin rash",sensitivity of cell line (FIG. 2) [8]: exceptional sensitivity; sensitivity of cell line (FIG. 2) [9]: exceptional sensitivity
O=C(CCCCCCC(=O)Nc1ccccc1)NO [Vorinostat],–,–,–,–,–,–,–,–,–,–,–,40,–,–
O=C(/C=C/c1cccc(S(=O)(=O)Nc2ccccc2)c1)NO [Belinostat],–,–,–,–,–,–,–,–,–,–,200,200,–,"Survival of inflammatory breast cancer cells (percent viability vs DMSO) ([1]; single drug 500 nM, Belinostat panel (lower part of Table 6)): 14; Survival of inflammatory breast cancer cells (percent viability vs DMSO) [1, 15]: 0; Survival of inflammatory breast cancer cells (percent viability vs DMSO) [2, 16]: 91; Survival of inflammatory breast cancer cells (percent viability vs DMSO) [2, 15]: 45; Survival of inflammatory breast cancer cells (percent viability vs DMSO) [3, 16]: 91; Survival of inflammatory breast cancer cells (percent viability vs DMSO) [3, 15]: 23; Survival of inflammatory breast cancer cells (percent viability vs DMSO) [4, 16]: 71; Survival of inflammatory breast cancer cells (percent viability vs DMSO) [4, 15]: 21; Survival of inflammatory breast cancer cells (percent viability vs DMSO) [5, 16]: 95; Survival of inflammatory breast cancer cells (percent viability vs DMSO) [5, 15]: 107"
Nc1ccccc1NC(=O)c1ccc(CNC(=O)OCc2cccnc2)cc1 [Entinostat],–,21,–,61,–,45,–,99,–,159,–,–,–,"Survival of inflammatory breast cancer cells (percent viability vs DMSO) [1, 17]: 12; Survival of inflammatory breast cancer cells (percent viability vs DMSO) [2, 17]: 35; Survival of inflammatory breast cancer cells (percent viability vs DMSO) [3, 17]: 20; Survival of inflammatory breast cancer cells (percent viability vs DMSO) [4, 17]: 102; Survival of inflammatory breast cancer cells (percent viability vs DMSO) [5, 17]: 223; inhibition of HDAC1 [10]: inhibits"
